Legend:
[1] = test system: T cells in healthy human PBMCs; experiment: effects on T cells in cultured healthy PBMCs (cell type analysis, Treg removal, cytotoxic T cell induction); format: cell-based; details: healthy PBMCs cultured with antibody for 5 days
Method: Purchased healthy human PBMCs (33000-10, Wako Pure Chemicals) were seeded at 5×10^5 cells/well in a 96 well U-bottom plate and cultured in the presence of 100 IU/mL IL-2 (87-890, NIPRO) and 20 ng/mL IL-7 (200-07, PeproTech) for 5 or 6 days to induce Tregs. The medium was washed out and the cells were cultured in the presence of CMV peptide A02 (TS-0010-1c, MBL), 10 IU/mL IL-2, and 20 ng/mL IL-7 for 11 days to induce antigen-specific cytotoxic T cells. The medium used was RPMI-1640 (189-0202, Wako Pure Chemicals) supplemented with 10% Human Serum AB (100-512, H46X00K, Gemini Bio), 1 mM penicillin streptomycin (09367-34, Nacalai Tesque), 1 mM sodium pyruvate (11360070, Gibco), 10 mM HEPES (17557-9, Nacalai Tesque), 1% GlutaMAX (35050061, Thermo Fisher), and 0.01 mM 2-mercaptoethanol (21438-82, Nacalai Tesque).
FACSVerse (BD) was used for various cell type analyses. Cells were counted using CountBright™ Absolute Counting Beads (C36950, Invitrogen). GraphPad Prism 9.2.0 was used for data analysis.
Substantially the same method as described in the Section 21.1 above was used to check a change in the percentage of various CD39^hi-expressing T cells by each glycan-modified anti-CD39 antibody.

activated Tregs = experiment: binding to activated Tregs (FACS); parameters: species or system human; details: 10 μg/mL
Method: Purchased healthy human PBMCs (Wako Pure Chemicals, 33000-10M) were seeded at 2×10^5 cells/well in a 96 well U-bottom plate and cultured in the presence of 10 IU/mL IL-2 (NIPRO, 87-890) and 20 ng/mL IL-7 (PeproTech, 200-07) for 6 days. After 6 days, all the cells were collected and the Treg population was isolated using a CD4^+CD25^+CD127^dim/− Regulatory T Cell Isolation Kit II, human (Miltenyi, 130-094-775). Isolated Tregs were seeded at 2×10^4 cells/well in ab96 well U-bottom plate and stimulated for 6 days in the presence of 6×10^5 Dynabeads Human T-Activator CD3/CD28 (Gibco, DB11132-D), 10 IU/mL IL-2, and 20 ng/mL IL-7. The medium used was RPMI (Wako Pure Chemicals, 189-02025) supplemented with 10% Human Serum AB (Gemini Bio, 100-512, H46X00K), 1 mM penicillin streptomycin (Nacalai Tesque, 09367-34), 1 mM sodium pyruvate (Gibco, 11360070), 10 mM HEPES (Nacalai Tesque, 17557-94), GlutaMAX (Thermo Fisher, 35050061). 11360070), 10 mM HEPES (Nacalai Tesque, 17557-94), and GlutaMAX (Thermo Fisher, 35050061). After 6 days, Tregs were collected and analyzed for binding of each test antibody by using a FACSVerse. GraphPad Prism 9.2.0 was used for data analysis.

[2] = test system: A375 (malignant melanoma cancer cell line); experiment: cancer cell growth inhibition test with Treg-removed PBMCs; format: cell-based, human; details: PBMCs pre-treated with 10 μg/ml antibody for 5 days, co-culture 5 days
Method: Purchased healthy human PBMCs (Wako Pure Chemicals, 33000-10M) were seeded at 5×10^5 cells/well in a 96 well U-bottom plate and cultured in the presence of 100 IU/mL IL-2 (NIPRO, 87-890), 20 ng/mL IL-7 (PeproTech, 200-07), and each test antibody at 10 μg/ml for 5 days. Then, 15,000 cells/well of A375 (malignant melanoma cancer cell line) overexpressing CMV antigen and RFP were mixed with 45,000 cells/well of PBMCs prepared after 5 days of culture, and the mixture was co-cultured at 37° C. and 5% CO2 for 5 days. At this time, the medium used was RPMI-1640 (189-0202, Wako Pure Chemicals) supplemented with 10% Human Serum AB (100-512, H46X00K, Gemini Bio), 1 mM penicillin streptomycin (09367-34, Nacalai Tesque), 1 mM sodium pyruvate (11360070, Gibco), 10 mM HEPES (17557-9, Nacalai Tesque), 1% GlutaMAX (35050061, Thermo Fisher), and 0.01 mM 2-mercaptoethanol (21438-82, Nacalai Tesque). The number of A375 cells was then determined by measuring the fluorescence value of RFP while using a Varioskan LUX multimode microplate reader (Thermo Fisher Scientific). GraphPad Prism 9.2.0 was used for data analysis.

[3] = test system: human multiple myeloma-derived cell line MOLP-8; details: day 24, last day of the study
Method: The human multiple myeloma-derived cell line MOLP-8 (DMSZ, ACC569) was subcutaneously transplanted (at 5×10^6 cells/mouse) into the right abdomen of each SCID mouse (C.B-17/Icr-scid/scidJcl, female, 7-week-old). On day 10 after transplantation, the mice were divided into groups based on tumor volume. Each antibody was administered in the doses listed in Table 3 twice a week for a total of seven doses starting on the day of grouping. Doxorubicin was administered twice a week for a total of 5 doses, starting 7 days after the grouping date. The tumor diameter and body weight were measured on day 24 after grouping. The tumor weight (n=5) data were analyzed using GraphPad Prism 9.2.0. One-way ANOVA and Tukey multiple comparisons test were used for statistical analysis. A significant difference was assumed when p**≤0.01.

ability of binding to activated Tregs (activated Tregs)	heart weight [3]	Molecule	CD39^hiCD4+FoxP3+ Tregs and effector Tregs (Fr. II) [1]	growth of human malignant melanoma A375 [2]
not strong		ipilimumab	significant loss of only effector Tregs (Fr. II)	no inhibitory effect
	decreased	COc1cccc2c1C(=O)c1c(O)c3c(c(O)c1C2=O)C[C@@](O)(C(=O)CO)C[C@@H]3O[C@H]1C[C@H](N)[C@H](O)[C@H](C)O1 [doxorubicin]		
not strong		mogamulizumab	significant loss of only effector Tregs (Fr. II)	
